Laboratory results from the OligoGym collection.
Oligonucleotides are given in HELM: sugar(base)linkage, 5' to 3'; d 2'-deoxyribose, r ribose, m 2'-O-methylribose, p phosphate. ss, as = sense and antisense strand

biological target: SOST; assay: reporter assay of Huesken 2005; details: siRNA
Note: test concentration or dose not given here.

Substance	normalised inhibition (eCFP-eYFP dual reporter)
RNA1{r(C)p.r(C)p.r(A)p.r(C)p.r(A)p.r(A)p.r(C)p.r(C)p.r(A)p.r(G)p.r(U)p.r(C)p.r(G)p.r(G)p.r(A)p.r(G)p.r(C)p.r(U)p.r(C)p.d(T)p.d(T)}|RNA2{r(G)p.r(A)p.r(G)p.r(C)p.r(U)p.r(C)p.r(C)p.r(G)p.r(A)p.r(C)p.r(U)p.r(G)p.r(G)p.r(U)p.r(U)p.r(G)p.r(U)p.r(G)p.r(G)p.d(A)p.d(A)}$$$RNA1{StrandType:ss}|RNA2{StrandType:as}$	80.8%
RNA1{r(A)p.r(G)p.r(C)p.r(U)p.r(G)p.r(C)p.r(U)p.r(G)p.r(U)p.r(G)p.r(U)p.r(C)p.r(C)p.r(C)p.r(G)p.r(G)p.r(U)p.r(G)p.r(G)p.d(T)p.d(T)}|RNA2{r(C)p.r(C)p.r(A)p.r(C)p.r(C)p.r(G)p.r(G)p.r(G)p.r(A)p.r(C)p.r(A)p.r(C)p.r(A)p.r(G)p.r(C)p.r(A)p.r(G)p.r(C)p.r(U)p.d(G)p.d(C)}$$$RNA1{StrandType:ss}|RNA2{StrandType:as}$	66%
RNA1{r(C)p.r(A)p.r(G)p.r(C)p.r(G)p.r(C)p.r(C)p.r(A)p.r(A)p.r(G)p.r(C)p.r(C)p.r(G)p.r(G)p.r(U)p.r(C)p.r(A)p.r(C)p.r(C)p.d(T)p.d(T)}|RNA2{r(G)p.r(G)p.r(U)p.r(G)p.r(A)p.r(C)p.r(C)p.r(G)p.r(G)p.r(C)p.r(U)p.r(U)p.r(G)p.r(G)p.r(C)p.r(G)p.r(C)p.r(U)p.r(G)p.d(C)p.d(G)}$$$RNA1{StrandType:ss}|RNA2{StrandType:as}$	50.5%
RNA1{r(G)p.r(G)p.r(A)p.r(G)p.r(C)p.r(U)p.r(C)p.r(A)p.r(A)p.r(G)p.r(G)p.r(A)p.r(C)p.r(U)p.r(U)p.r(C)p.r(G)p.r(G)p.r(G)p.d(T)p.d(T)}|RNA2{r(C)p.r(C)p.r(C)p.r(G)p.r(A)p.r(A)p.r(G)p.r(U)p.r(C)p.r(C)p.r(U)p.r(U)p.r(G)p.r(A)p.r(G)p.r(C)p.r(U)p.r(C)p.r(C)p.d(G)p.d(A)}$$$RNA1{StrandType:ss}|RNA2{StrandType:as}$	75%
RNA1{r(C)p.r(G)p.r(G)p.r(U)p.r(C)p.r(A)p.r(C)p.r(C)p.r(G)p.r(A)p.r(G)p.r(C)p.r(U)p.r(G)p.r(G)p.r(U)p.r(G)p.r(U)p.r(G)p.d(T)p.d(T)}|RNA2{r(C)p.r(A)p.r(C)p.r(A)p.r(C)p.r(C)p.r(A)p.r(G)p.r(C)p.r(U)p.r(C)p.r(G)p.r(G)p.r(U)p.r(G)p.r(A)p.r(C)p.r(C)p.r(G)p.d(G)p.d(C)}$$$RNA1{StrandType:ss}|RNA2{StrandType:as}$	52.2%
RNA1{r(G)p.r(C)p.r(G)p.r(A)p.r(C)p.r(C)p.r(U)p.r(A)p.r(G)p.r(U)p.r(G)p.r(G)p.r(G)p.r(C)p.r(C)p.r(C)p.r(G)p.r(A)p.r(C)p.d(T)p.d(T)}|RNA2{r(G)p.r(U)p.r(C)p.r(G)p.r(G)p.r(G)p.r(C)p.r(C)p.r(C)p.r(A)p.r(C)p.r(U)p.r(A)p.r(G)p.r(G)p.r(U)p.r(C)p.r(G)p.r(C)p.d(C)p.d(A)}$$$RNA1{StrandType:ss}|RNA2{StrandType:as}$	66%
RNA1{r(A)p.r(A)p.r(G)p.r(G)p.r(A)p.r(C)p.r(U)p.r(U)p.r(C)p.r(G)p.r(G)p.r(G)p.r(A)p.r(C)p.r(C)p.r(G)p.r(A)p.r(G)p.r(G)p.d(T)p.d(T)}|RNA2{r(C)p.r(C)p.r(U)p.r(C)p.r(G)p.r(G)p.r(U)p.r(C)p.r(C)p.r(C)p.r(G)p.r(A)p.r(A)p.r(G)p.r(U)p.r(C)p.r(C)p.r(U)p.r(U)p.d(G)p.d(A)}$$$RNA1{StrandType:ss}|RNA2{StrandType:as}$	58.7%
RNA1{r(C)p.r(C)p.r(G)p.r(A)p.r(U)p.r(G)p.r(G)p.r(G)p.r(C)p.r(C)p.r(G)p.r(U)p.r(G)p.r(C)p.r(C)p.r(G)p.r(C)p.r(A)p.r(G)p.d(T)p.d(T)}|RNA2{r(C)p.r(U)p.r(G)p.r(C)p.r(G)p.r(G)p.r(C)p.r(A)p.r(C)p.r(G)p.r(G)p.r(C)p.r(C)p.r(C)p.r(A)p.r(U)p.r(C)p.r(G)p.r(G)p.d(T)p.d(C)}$$$RNA1{StrandType:ss}|RNA2{StrandType:as}$	54.3%
RNA1{r(C)p.r(C)p.r(G)p.r(U)p.r(G)p.r(C)p.r(C)p.r(G)p.r(C)p.r(A)p.r(G)p.r(C)p.r(G)p.r(C)p.r(C)p.r(A)p.r(A)p.r(G)p.r(C)p.d(T)p.d(T)}|RNA2{r(G)p.r(C)p.r(U)p.r(U)p.r(G)p.r(G)p.r(C)p.r(G)p.r(C)p.r(U)p.r(G)p.r(C)p.r(G)p.r(G)p.r(C)p.r(A)p.r(C)p.r(G)p.r(G)p.d(C)p.d(C)}$$$RNA1{StrandType:ss}|RNA2{StrandType:as}$	50.5%
RNA1{r(A)p.r(G)p.r(U)p.r(G)p.r(G)p.r(U)p.r(G)p.r(G)p.r(C)p.r(G)p.r(A)p.r(C)p.r(C)p.r(U)p.r(A)p.r(G)p.r(U)p.r(G)p.r(G)p.d(T)p.d(T)}|RNA2{r(C)p.r(C)p.r(A)p.r(C)p.r(U)p.r(A)p.r(G)p.r(G)p.r(U)p.r(C)p.r(G)p.r(C)p.r(C)p.r(A)p.r(C)p.r(C)p.r(A)p.r(C)p.r(U)p.d(T)p.d(G)}$$$RNA1{StrandType:ss}|RNA2{StrandType:as}$	78.9%
RNA1{r(A)p.r(C)p.r(G)p.r(U)p.r(G)p.r(U)p.r(C)p.r(C)p.r(G)p.r(A)p.r(G)p.r(U)p.r(A)p.r(C)p.r(A)p.r(G)p.r(C)p.r(U)p.r(G)p.d(T)p.d(T)}|RNA2{r(C)p.r(A)p.r(G)p.r(C)p.r(U)p.r(G)p.r(U)p.r(A)p.r(C)p.r(U)p.r(C)p.r(G)p.r(G)p.r(A)p.r(C)p.r(A)p.r(C)p.r(G)p.r(U)p.d(C)p.d(T)}$$$RNA1{StrandType:ss}|RNA2{StrandType:as}$	74.9%
RNA1{r(C)p.r(U)p.r(A)p.r(C)p.r(C)p.r(G)p.r(C)p.r(G)p.r(C)p.r(G)p.r(C)p.r(A)p.r(G)p.r(C)p.r(G)p.r(C)p.r(G)p.r(U)p.r(G)p.d(T)p.d(T)}|RNA2{r(C)p.r(A)p.r(C)p.r(G)p.r(C)p.r(G)p.r(C)p.r(U)p.r(G)p.r(C)p.r(G)p.r(C)p.r(G)p.r(C)p.r(G)p.r(G)p.r(U)p.r(A)p.r(G)p.d(C)p.d(G)}$$$RNA1{StrandType:ss}|RNA2{StrandType:as}$	50.5%
RNA1{r(G)p.r(G)p.r(G)p.r(C)p.r(G)p.r(G)p.r(C)p.r(C)p.r(U)p.r(C)p.r(C)p.r(C)p.r(C)p.r(A)p.r(C)p.r(C)p.r(A)p.r(C)p.r(C)p.d(T)p.d(T)}|RNA2{r(G)p.r(G)p.r(U)p.r(G)p.r(G)p.r(U)p.r(G)p.r(G)p.r(G)p.r(G)p.r(A)p.r(G)p.r(G)p.r(C)p.r(C)p.r(G)p.r(C)p.r(C)p.r(C)p.d(T)p.d(C)}$$$RNA1{StrandType:ss}|RNA2{StrandType:as}$	64.3%
RNA1{r(U)p.r(A)p.r(G)p.r(U)p.r(G)p.r(G)p.r(A)p.r(G)p.r(G)p.r(G)p.r(C)p.r(C)p.r(A)p.r(G)p.r(G)p.r(G)p.r(G)p.r(U)p.r(G)p.d(T)p.d(T)}|RNA2{r(C)p.r(A)p.r(C)p.r(C)p.r(C)p.r(C)p.r(U)p.r(G)p.r(G)p.r(C)p.r(C)p.r(C)p.r(U)p.r(C)p.r(C)p.r(A)p.r(C)p.r(U)p.r(A)p.d(C)p.d(A)}$$$RNA1{StrandType:ss}|RNA2{StrandType:as}$	72%
RNA1{r(C)p.r(C)p.r(C)p.r(G)p.r(C)p.r(U)p.r(A)p.r(C)p.r(G)p.r(U)p.r(G)p.r(A)p.r(C)p.r(C)p.r(G)p.r(A)p.r(U)p.r(G)p.r(G)p.d(T)p.d(T)}|RNA2{r(C)p.r(C)p.r(A)p.r(U)p.r(C)p.r(G)p.r(G)p.r(U)p.r(C)p.r(A)p.r(C)p.r(G)p.r(U)p.r(A)p.r(G)p.r(C)p.r(G)p.r(G)p.r(G)p.d(T)p.d(G)}$$$RNA1{StrandType:ss}|RNA2{StrandType:as}$	77.6%
RNA1{r(G)p.r(A)p.r(C)p.r(G)p.r(U)p.r(G)p.r(U)p.r(C)p.r(C)p.r(G)p.r(A)p.r(G)p.r(U)p.r(A)p.r(C)p.r(A)p.r(G)p.r(C)p.r(U)p.d(T)p.d(T)}|RNA2{r(A)p.r(G)p.r(C)p.r(U)p.r(G)p.r(U)p.r(A)p.r(C)p.r(U)p.r(C)p.r(G)p.r(G)p.r(A)p.r(C)p.r(A)p.r(C)p.r(G)p.r(U)p.r(C)p.d(T)p.d(T)}$$$RNA1{StrandType:ss}|RNA2{StrandType:as}$	75.8%
RNA1{r(A)p.r(G)p.r(A)p.r(C)p.r(C)p.r(A)p.r(U)p.r(G)p.r(A)p.r(A)p.r(C)p.r(C)p.r(G)p.r(G)p.r(G)p.r(C)p.r(G)p.r(G)p.r(A)p.d(T)p.d(T)}|RNA2{r(U)p.r(C)p.r(C)p.r(G)p.r(C)p.r(C)p.r(C)p.r(G)p.r(G)p.r(U)p.r(U)p.r(C)p.r(A)p.r(U)p.r(G)p.r(G)p.r(U)p.r(C)p.r(U)p.d(T)p.d(G)}$$$RNA1{StrandType:ss}|RNA2{StrandType:as}$	78.8%
RNA1{r(C)p.r(A)p.r(C)p.r(C)p.r(C)p.r(C)p.r(U)p.r(U)p.r(U)p.r(G)p.r(A)p.r(G)p.r(A)p.r(C)p.r(C)p.r(A)p.r(A)p.r(A)p.r(G)p.d(T)p.d(T)}|RNA2{r(C)p.r(U)p.r(U)p.r(U)p.r(G)p.r(G)p.r(U)p.r(C)p.r(U)p.r(C)p.r(A)p.r(A)p.r(A)p.r(G)p.r(G)p.r(G)p.r(G)p.r(U)p.r(G)p.d(G)p.d(T)}$$$RNA1{StrandType:ss}|RNA2{StrandType:as}$	72.2%
RNA1{r(A)p.r(C)p.r(C)p.r(A)p.r(U)p.r(G)p.r(A)p.r(A)p.r(C)p.r(C)p.r(G)p.r(G)p.r(G)p.r(C)p.r(G)p.r(G)p.r(A)p.r(G)p.r(A)p.d(T)p.d(T)}|RNA2{r(U)p.r(C)p.r(U)p.r(C)p.r(C)p.r(G)p.r(C)p.r(C)p.r(C)p.r(G)p.r(G)p.r(U)p.r(U)p.r(C)p.r(A)p.r(U)p.r(G)p.r(G)p.r(U)p.d(C)p.d(T)}$$$RNA1{StrandType:ss}|RNA2{StrandType:as}$	69.5%
RNA1{r(G)p.r(G)p.r(G)p.r(G)p.r(U)p.r(G)p.r(G)p.r(C)p.r(A)p.r(G)p.r(G)p.r(C)p.r(G)p.r(U)p.r(U)p.r(C)p.r(A)p.r(A)p.r(G)p.d(T)p.d(T)}|RNA2{r(C)p.r(U)p.r(U)p.r(G)p.r(A)p.r(A)p.r(C)p.r(G)p.r(C)p.r(C)p.r(U)p.r(G)p.r(C)p.r(C)p.r(A)p.r(C)p.r(C)p.r(C)p.r(C)p.d(T)p.d(G)}$$$RNA1{StrandType:ss}|RNA2{StrandType:as}$	48.7%
